± gives the expanded uncertainty stated by the source.
Experiment: xn = mol fraction of the nth substance listed
Details: 101 kPa, Liquid; for speed of sound: Sing-around technique in a fixed-path interferometer; for mass density: Vibrating tube method

CCCCCl [1-chlorobutane] + CCCCCC showed a speed of sound (283.15 K, x2 = 0) of 1180.1 ± 2.3 m/s, a speed of sound (283.15 K, x2 = 0.0508) of 1176 ± 2.3 m/s and a speed of sound (283.15 K, x2 = 0.0992) of 1172.3 ± 2.3 m/s. For the same compound, the speed of sound (283.15 K, x2 = 0.1972) was 1165.6 ± 2.3 m/s, the speed of sound (283.15 K, x2 = 0.2966) was 1159.7 ± 2.3 m/s and the speed of sound (283.15 K, x2 = 0.3976) was 1154.6 ± 2.3 m/s. For the same compound, the speed of sound (283.15 K, x2 = 0.5009) was 1150.5 ± 2.3 m/s, the speed of sound (283.15 K, x2 = 0.6006) was 1147.4 ± 2.3 m/s and the speed of sound (283.15 K, x2 = 0.6982) was 1145.2 ± 2.3 m/s. For the same compound, the speed of sound (283.15 K, x2 = 0.7972) was 1143.9 ± 2.3 m/s, the speed of sound (283.15 K, x2 = 0.8979) was 1143.7 ± 2.3 m/s and the speed of sound (283.15 K, x2 = 0.9472) was 1144.1 ± 2.3 m/s. The mass density (283.15 K, x2 = 0) was 897.339 ± 0.23 kg/m3, the mass density (283.15 K, x2 = 0.0508) was 882.878 ± 0.24 kg/m3 and the mass density (283.15 K, x2 = 0.0992) was 869.441 ± 0.24 kg/m3. It also gave a mass density (283.15 K, x2 = 0.1972) of 843.152 ± 0.24 kg/m3, a mass density (283.15 K, x2 = 0.2966) of 817.766 ± 0.24 kg/m3 and a mass density (283.15 K, x2 = 0.3976) of 793.168 ± 0.24 kg/m3. It also gave a mass density (283.15 K, x2 = 0.5009) of 769.237 ± 0.24 kg/m3, a mass density (283.15 K, x2 = 0.6006) of 747.205 ± 0.24 kg/m3 and a mass density (283.15 K, x2 = 0.6982) of 726.617 ± 0.25 kg/m3. For the same compound, the mass density (283.15 K, x2 = 0.7972) was 706.669 ± 0.25 kg/m3, the mass density (283.15 K, x2 = 0.8979) was 687.33 ± 0.25 kg/m3 and the mass density (283.15 K, x2 = 0.9472) was 678.205 ± 0.25 kg/m3. For the same compound, the speed of sound (298.15 K, x2 = 0) was 1118.2 ± 2.3 m/s, the speed of sound (298.15 K, x2 = 0.0508) was 1113.8 ± 2.3 m/s and the speed of sound (298.15 K, x2 = 0.0992) was 1109.7 ± 2.3 m/s. It also gave a speed of sound (298.15 K, x2 = 0.1972) of 1102.4 ± 2.3 m/s, a speed of sound (298.15 K, x2 = 0.2966) of 1095.9 ± 2.3 m/s and a speed of sound (298.15 K, x2 = 0.3976) of 1090.2 ± 2.3 m/s. For the same compound, the speed of sound (298.15 K, x2 = 0.5009) was 1085.6 ± 2.3 m/s, the speed of sound (298.15 K, x2 = 0.6006) was 1081.8 ± 2.3 m/s and the speed of sound (298.15 K, x2 = 0.6982) was 1079.1 ± 2.3 m/s. For the same compound, the speed of sound (298.15 K, x2 = 0.7972) was 1077.2 ± 2.3 m/s, the speed of sound (298.15 K, x2 = 0.8979) was 1076.4 ± 2.3 m/s and the speed of sound (298.15 K, x2 = 0.9472) was 1076.4 ± 2.3 m/s. The mass density (298.15 K, x2 = 0) was 880.785 ± 0.23 kg/m3, the mass density (298.15 K, x2 = 0.0508) was 866.478 ± 0.24 kg/m3 and the mass density (298.15 K, x2 = 0.0992) was 853.196 ± 0.24 kg/m3. The mass density (298.15 K, x2 = 0.1972) was 827.205 ± 0.24 kg/m3, the mass density (298.15 K, x2 = 0.2966) was 802.115 ± 0.24 kg/m3 and the mass density (298.15 K, x2 = 0.3976) was 777.821 ± 0.24 kg/m3. It also gave a mass density (298.15 K, x2 = 0.5009) of 754.195 ± 0.24 kg/m3, a mass density (298.15 K, x2 = 0.6006) of 732.45 ± 0.24 kg/m3 and a mass density (298.15 K, x2 = 0.6982) of 712.126 ± 0.25 kg/m3. The mass density (298.15 K, x2 = 0.7972) was 692.488 ± 0.25 kg/m3, the mass density (298.15 K, x2 = 0.8979) was 673.439 ± 0.25 kg/m3 and the mass density (298.15 K, x2 = 0.9472) was 664.449 ± 0.25 kg/m3. It also gave a speed of sound (313.15 K, x2 = 0) of 1056.9 ± 2.3 m/s, a speed of sound (313.15 K, x2 = 0.0508) of 1052.2 ± 2.3 m/s and a speed of sound (313.15 K, x2 = 0.0992) of 1047.9 ± 2.3 m/s. It also gave a speed of sound (313.15 K, x2 = 0.1972) of 1040 ± 2.3 m/s, a speed of sound (313.15 K, x2 = 0.2966) of 1032.8 ± 2.3 m/s and a speed of sound (313.15 K, x2 = 0.3976) of 1026.5 ± 2.3 m/s. For the same compound, the speed of sound (313.15 K, x2 = 0.5009) was 1021.2 ± 2.3 m/s, the speed of sound (313.15 K, x2 = 0.6006) was 1016.9 ± 2.3 m/s and the speed of sound (313.15 K, x2 = 0.6982) was 1013.6 ± 2.3 m/s. For the same compound, the speed of sound (313.15 K, x2 = 0.7972) was 1011.2 ± 2.3 m/s, the speed of sound (313.15 K, x2 = 0.8979) was 1009.8 ± 2.3 m/s and the speed of sound (313.15 K, x2 = 0.9472) was 1009.7 ± 2.3 m/s. The mass density (313.15 K, x2 = 0) was 863.882 ± 0.23 kg/m3, the mass density (313.15 K, x2 = 0.0508) was 849.768 ± 0.24 kg/m3 and the mass density (313.15 K, x2 = 0.0992) was 836.65 ± 0.24 kg/m3. For the same compound, the mass density (313.15 K, x2 = 0.1972) was 810.995 ± 0.24 kg/m3, the mass density (313.15 K, x2 = 0.2966) was 786.257 ± 0.24 kg/m3 and the mass density (313.15 K, x2 = 0.3976) was 762.288 ± 0.24 kg/m3. For the same compound, the mass density (313.15 K, x2 = 0.5009) was 739.001 ± 0.24 kg/m3, the mass density (313.15 K, x2 = 0.6006) was 717.601 ± 0.25 kg/m3 and the mass density (313.15 K, x2 = 0.6982) was 697.583 ± 0.25 kg/m3. It also gave a mass density (313.15 K, x2 = 0.7972) of 678.241 ± 0.25 kg/m3, a mass density (313.15 K, x2 = 0.8979) of 659.508 ± 0.25 kg/m3 and a mass density (313.15 K, x2 = 0.9472) of 650.666 ± 0.25 kg/m3.
